Data reported in the supplement of paper PMC11451515.

Test system: P12-Ichikawa
Assay: cell viability relative to DMSO control; higher = less cytotoxic
Conditions: 48 h
Procedure, shortened: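 NOMO1 or SEM cells were plated at 500 cells/well and P12-Ichikawa cells at 1000 cells/well in 1536-well plates (5 μl), after each leukemia line had been adapted for at least four passages in each medium. Pin dosing delivered library compounds in DMSO at 11 threefold concentrations, 47 μM to 0.79 nM. CellTiter-Glo One luminescence was read after 48 h at 37°C. Viability is reported as a per-plate percentage of DMSO wells, with cell-free wells as background.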

[1] = HPLM + 10% dialyzed FBS, 0.000781 µM
[2] = HPLM + 10% dialyzed FBS, 0.00234 µM
[3] = HPLM + 10% dialyzed FBS, 0.00702 µM
[4] = HPLM + 10% dialyzed FBS, 0.0211 µM
[5] = HPLM + 10% dialyzed FBS, 0.0632 µM
[6] = HPLM + 10% dialyzed FBS, 0.19 µM
[7] = HPLM + 10% dialyzed FBS, 0.569 µM
[8] = HPLM + 10% dialyzed FBS, 1.71 µM
[9] = HPLM + 10% dialyzed FBS, 5.12 µM
[10] = HPLM + 10% dialyzed FBS, 15.4 µM
[11] = HPLM + 10% dialyzed FBS, 46.1 µM
[12] = RPMI 5 mM glucose + 10% FBS, 0.000781 µM
[13] = RPMI 5 mM glucose + 10% FBS, 0.00234 µM
[14] = RPMI 5 mM glucose + 10% FBS, 0.00702 µM
[15] = RPMI 5 mM glucose + 10% FBS, 0.0211 µM
[16] = RPMI 5 mM glucose + 10% FBS, 0.0632 µM
[17] = RPMI 5 mM glucose + 10% FBS, 0.19 µM
[18] = RPMI 5 mM glucose + 10% FBS, 0.569 µM
[19] = RPMI 5 mM glucose + 10% FBS, 1.71 µM
[20] = RPMI 5 mM glucose + 10% FBS, 5.12 µM
[21] = RPMI 5 mM glucose + 10% FBS, 15.4 µM
[22] = RPMI 5 mM glucose + 10% FBS, 46.1 µM
[23] = RPMI 5 mM glucose + 10% dialyzed FBS, 0.000781 µM
[24] = RPMI 5 mM glucose + 10% dialyzed FBS, 0.00234 µM
[25] = RPMI 5 mM glucose + 10% dialyzed FBS, 0.00702 µM
[26] = RPMI 5 mM glucose + 10% dialyzed FBS, 0.0211 µM
[27] = RPMI 5 mM glucose + 10% dialyzed FBS, 0.0632 µM
[28] = RPMI 5 mM glucose + 10% dialyzed FBS, 0.19 µM
[29] = RPMI 5 mM glucose + 10% dialyzed FBS, 0.569 µM
[30] = RPMI 5 mM glucose + 10% dialyzed FBS, 1.71 µM
[31] = RPMI 5 mM glucose + 10% dialyzed FBS, 5.12 µM
[32] = RPMI 5 mM glucose + 10% dialyzed FBS, 15.4 µM
[33] = RPMI 5 mM glucose + 10% dialyzed FBS, 46.1 µM

Structure (SMILES) | cell viability [1] [%] | cell viability [2] [%] | cell viability [3] [%] | cell viability [4] [%] | cell viability [5] [%] | cell viability [6] [%] | cell viability [7] [%] | cell viability [8] [%] | cell viability [9] [%] | cell viability [10] [%] | cell viability [11] [%] | cell viability [12] [%] | cell viability [13] [%] | cell viability [14] [%] | cell viability [15] [%] | cell viability [16] [%] | cell viability [17] [%] | cell viability [18] [%] | cell viability [19] [%] | cell viability [20] [%] | cell viability [21] [%] | cell viability [22] [%] | cell viability [23] [%] | cell viability [24] [%] | cell viability [25] [%] | cell viability [26] [%] | cell viability [27] [%] | cell viability [28] [%] | cell viability [29] [%] | cell viability [30] [%] | cell viability [31] [%] | cell viability [32] [%] | cell viability [33] [%]
Cl.Cl.Fc1ccc(C(OCCN2CCN(CCCc3ccccc3)CC2)c2ccc(F)cc2)cc1 | 105 | 104 | 109 | 112 | 116 | 109 | 109 | 113 | 120 | 113 | 78.4 | 114 | 133 | 118 | 123 | 136 | 126 | 126 | 124 | 122 | 124 | 73.9 | 115 | 121 | 119 | 117 | 127 | 121 | 122 | 115 | 120 | 120 | 62.8
Clc1ccc(COC(Cn2ccnc2)c2ccc(Cl)cc2Cl)cc1 (centres undefined) | 110 | 109 | 115 | 117 | 124 | 121 | 120 | 117 | 114 | 116 | 106 | 116 | 117 | 114 | 126 | 129 | 123 | 121 | 130 | 126 | 104 | 91.3 | 108 | 114 | 123 | 113 | 124 | 124 | 120 | 107 | 103 | 96.8 | 85.7
CCC(=O)O[C@@]1([C@H](C)C[C@H]2[C@@H]3C[C@H](F)\C4=C\C(=O)\C=C/[C@]4(C)[C@@]3(F)[C@@H](O)C[C@]12C)C(=O)SCF | 101 | 112 | 88 | 75.6 | 69.2 | 64.8 | 70.6 | 71.5 | 65.9 | 69.8 | 66.2 | 120 | 119 | 86.3 | 76.5 | 74.7 | 68.8 | 68.2 | 58.9 | 59.2 | 55.1 | 59.9 | 95.9 | 100 | 71.3 | 55.5 | 54.4 | 55.1 | 53.6 | 49.6 | 51.1 | 48.6 | 46.7
CN(C)CCC=C1C2=C(C=CC=C2)\C=C/C3=C1C=CC=C3 | 109 | 118 | 114 | 117 | 120 | 123 | 106 | 105 | 96.9 | 105 | 87.1 | – | – | – | – | – | – | – | – | – | – | – | 115 | 109 | 105 | 115 | 119 | 107 | 111 | 102 | 106 | 105 | 84.1
O=C(NC1CC1)c1cccc(-c2ccc3c(NC(=O)C4CC4)n[nH]c3c2)c1 | 109 | 109 | 108 | 113 | 114 | 113 | 112 | 112 | 95.2 | 39.5 | 13.1 | 111 | 114 | 113 | 127 | 121 | 124 | 110 | 113 | 101 | 43.5 | 12.6 | 110 | 120 | 118 | 121 | 118 | 116 | 114 | 112 | 102 | 55.3 | 24.5
C[C@@H]1CN(CC(=O)N2CC(C)(C)c3ncc(Cc4ccc(F)cc4)cc32)[C@@H](CN2CCOC[C@H]2C)CN1 | 102 | 113 | 81.8 | 113 | 118 | 121 | 111 | 112 | 115 | 110 | 91.8 | 102 | 106 | 69.7 | 118 | 118 | 132 | 114 | 128 | 125 | 116 | 98.2 | 110 | 119 | 88.8 | 125 | 126 | 135 | 128 | 122 | 121 | 118 | 90.8
COc1cc(/C=C/C(=O)CC(=O)/C=C/c2ccc(O)c(OC)c2)ccc1O | 99.1 | 96.9 | 108 | 104 | 110 | 105 | 109 | 106 | 96.4 | 27.8 | 5.27 | 102 | 104 | 98.4 | 113 | 113 | 110 | 105 | 104 | 99.1 | 61.2 | 4.23 | 98.8 | 102 | 105 | 110 | 104 | 98.2 | 104 | 113 | 102 | 60.3 | 4.18
COc1cc(N2CCC(N3CCN(C)CC3)CC2)ccc1Nc1ncnc(Nc2ccccc2[S+](=O)([O-])C(C)C)n1 | 113 | 117 | 120 | 125 | 97.9 | 128 | 122 | 117 | 115 | 90.1 | 28.4 | 97.4 | 90.7 | 100 | 110 | 74.5 | 112 | 106 | 103 | 103 | 91.2 | 44.9 | 112 | 97 | 118 | 119 | 84 | 125 | 120 | 119 | 114 | 83.4 | 47.3
CN[C@@H](C)C(=O)N[C@H]1CCCC[C@H]2CC[C@@H](C(=O)N[C@@H](c3ccccc3)c3cn(CCCCc4ccc(CCCCn5cc([C@@H](NC(=O)[C@@H]6CC[C@@H]7CCCC[C@H](NC(=O)[C@H](C)NC)C(=O)N76)c6ccccc6)nn5)cc4)nn3)N2C1=O | 103 | 101 | 99.3 | 95.4 | 102 | 99.8 | 94.8 | 104 | 96.3 | 96.8 | 94.7 | 98.6 | 104 | 92 | 106 | 92.8 | 99.7 | 115 | 97.9 | 96.2 | 97.1 | 79.9 | 90.8 | 110 | 94.7 | 84.7 | 93 | 101 | 97.3 | 98 | 92.1 | 93.5 | 72.9
COc1ccc(CCC(=O)Nc2nc3ccc(Cl)cc3s2)cc1OC | 106 | 106 | 106 | 112 | 111 | 107 | 110 | 102 | 104 | 99.3 | 98.6 | 109 | 118 | 94.9 | 114 | 111 | 110 | 110 | 108 | 109 | 107 | 92.1 | 113 | 94.1 | 105 | 113 | 110 | 105 | 99.7 | 105 | 103 | 91.9 | 92.6
CCCCc1oc2ccc(NS(C)(=O)=O)cc2c1C(=O)c1ccc(OCCCN(CCCC)CCCC)cc1 | 98.3 | 99 | 117 | 108 | 107 | 108 | 110 | 111 | 106 | 12.1 | 15 | 96 | 117 | 113 | 115 | 118 | 111 | 112 | 105 | 98.1 | 15.5 | 12.7 | 93.3 | 99.9 | 102 | 109 | 108 | 110 | 104 | 109 | 95.7 | 20.9 | 10.3
Cc1cc(SCc2sc(-c3ccc(C(F)(F)F)c(F)c3)nc2C)ccc1OCC(=O)O | 106 | 104 | 100 | 92.4 | 105 | 106 | 106 | 101 | 100 | 86.2 | 91.5 | 98.4 | 102 | 93.1 | 81.6 | 97.3 | 99.7 | 94.4 | 93.4 | 96.7 | 89.5 | 87.9 | 93.3 | 94.4 | 96.7 | 92.8 | 89.5 | 97 | 93.6 | 92.8 | 98 | 80.9 | 76.3
N/C(=N\C(=O)c1nc(Cl)c(N)nc1N)NCc1ccccc1 | 101 | 106 | 105 | 103 | 108 | 105 | 108 | 108 | 101 | 98.7 | 70.9 | 84.9 | 96.9 | 83.3 | 92.1 | 99 | 103 | 106 | 95.1 | 107 | 96.5 | 58.4 | 82.5 | 94.1 | 94.1 | 88.2 | 94.4 | 101 | 103 | 106 | 98.2 | 76.1 | 51.4
Cc1cnc(Nc2ccc(OCCN3CCCC3)cc2)nc1Nc1cccc([S+](=O)([O-])NC(C)(C)C)c1 | 100 | 108 | 110 | 110 | 115 | 111 | 119 | 114 | 112 | 108 | 112 | 110 | 116 | 110 | 119 | 120 | 116 | 120 | 117 | 110 | 108 | 112 | 91.8 | 101 | 109 | 106 | 117 | 109 | 111 | 118 | 110 | 110 | 97.6
COc1ccc2cccc(CCNC(C)=O)c2c1 | 104 | 100 | 102 | 102 | 96 | 103 | 99 | 104 | 102 | 92.7 | 89.6 | 98.3 | 104 | 105 | 109 | 103 | 107 | 104 | 101 | 99.6 | 97.8 | 95.9 | 97.6 | 103 | 110 | 96.8 | 104 | 104 | 97.4 | 93.8 | 94.3 | 98.2 | 89.6
